According to patent US8940896B2, “Tetra-cyclic carboline derivatives useful in the inhibition of angiogenesis” (PTC Therapeutics, Inc., priority 2004, dated 2015):

Tested on: VEGF
Test: Hypoxia-inducible endogenous VEGF expression, VEGF ELISA assay
Assay type: cell-based
Settings: HeLa cells, hypoxic conditions (1% O2, 5% CO2), VEGF in conditioned media
Procedure, shortened: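 HeLa cells cultured 24-48 h under hypoxia (1% O2) with or without compound; VEGF in conditioned medium quantified by ELISA against a standard curve. EC50 from dose-response percent inhibition, with parallel CellTiter-Glo CC50 under identical conditions.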

Row | Compound | EC50 (Homo sapiens, HeLa) [nM] | EC50 [nM]
1 | CN1CCN(CCCOc2ccc(C3c4[nH]c5ccc(Br)cc5c4CC4C(=O)N(c5ccc(Cl)cc5)C(=S)N43)cc2)CC1 (centres unmarked) [Compound 198] | < 8 | –
2 | CN1C(=O)C2Cc3c([nH]c4ccccc34)C(c3ccc(F)cc3)N2C1=S (centres unmarked) [Compound 63] | > 1000 | –
3 | O=C1C2Cc3c([nH]c4ccc(Br)cc34)C(c3ccc(OCCCN4CCCC4)cc3)N2C(=S)N1c1ccc(Cl)cc1 (centres unmarked) [Compound 189] | 8 to 40 | –
4 | CN1C(=O)C2Cc3c([nH]c4ccccc34)C(c3ccc(Cl)c(Cl)c3)N2C1=S (centres unmarked) [Compound 53] | > 1000 | –
5 | COc1ccc(C2c3[nH]c4ccc(Br)cc4c3CC3C(=O)N(C4CCCCC4)C(=S)N32)cc1 (centres unmarked) [Compound 187] | – | > 1000
6 | CCN(CC)CCCOc1ccc(C2c3[nH]c4ccc(Br)cc4c3CC3C(=O)N(c4ccc(Cl)cc4)C(=S)N32)cc1 (centres unmarked) [Compound 193] | 8 to 40 | –
7 | COc1ccc(C2c3[nH]c4ccccc4c3CC3C(=O)N(C4CCCC4)C(=S)N32)cc1 (centres unmarked) [Compound 13] | 40 to 200 | –
8 | COCCCN1C(=O)C2Cc3c([nH]c4ccccc34)C(c3ccc(OC)cc3)N2C1=S (centres unmarked) [Compound 62] | > 1000 | –
9 | CC(C)N1C(=O)C2Cc3c([nH]c4ccc(Br)cc34)C(c3ccc(OCCCN4CCOCC4)cc3)N2C1=S (centres unmarked) [Compound 153] | 8 to 40 | –
10 | COc1ccc(C2c3[nH]c4ccccc4c3CC3C(=O)N(C4CCCCC4)C(=O)N32)cc1 (centres unmarked) [Compound 54] | – | > 1000
11 | CC(=O)N1CCN(CCCOc2ccc(C3c4[nH]c5ccc(Br)cc5c4CC4C(=O)N(C(C)C)C(=S)N43)cc2)CC1 (centres unmarked) [Compound 152] | < 8 | –
12 | CC(C)NCCCOc1ccc(C2c3[nH]c4ccc(Br)cc4c3CC3C(=O)N(c4ccc(Cl)cc4)C(=S)N32)cc1 (centres unmarked) [Compound 194] | 8 to 40 | –
13 | COCCOc1ccc(C2c3[nH]c4ccc(Br)cc4c3CC3C(=O)N(C4CCCCC4)C(=S)N32)cc1 (centres unmarked) [Compound 117] | – | < 8
14 | CC(C)c1ccc(C2c3[nH]c4ccc(Br)cc4c3CC3C(=O)N(C4CCCCC4)C(=S)N32)cc1 (centres unmarked) [Compound 97] | < 8 | –
15 | COCCCN1C(=O)C2Cc3c([nH]c4ccc(Br)cc34)C(c3ccc(OCCN4CCOCC4)cc3)N2C1=S (centres unmarked) [Compound 105] | 8 to 40 | –
16 | CN1C(=O)C2Cc3c([nH]c4ccc(Br)cc34)C(c3ccc(OCCN4CCOCC4)cc3)N2C1=S (centres unmarked) [Compound 100] | 8 to 40 | –
17 | O=C1C2Cc3c([nH]c4ccccc34)C(c3ccc4c(c3)OCO4)N2C(=S)N1C1CCCC1 (centres unmarked) [Compound 14] | 200 to 1000 | –
18 | O=C1C2Cc3c([nH]c4ccc(Br)cc34)C(c3ccc(OCCCN4CCOCC4)cc3)N2C(=S)N1c1ccc(Cl)cc1 (centres unmarked) [Compound 192] | < 8 | –
19 | COc1cccc(C2c3[nH]c4ccc(Br)cc4c3CC3C(=O)N(C4CCCC4)C(=S)N32)c1 (centres unmarked) [Compound 20] | < 8 | –
20 | CC(C)N1C(=O)C2Cc3c([nH]c4ccc(Br)cc34)C(c3ccc(-c4ccncc4)cc3)N2C1=O (centres unmarked) [Compound 120] | 200 to 1000 | –
